According to a melting point compilation (Tetko et al.; mined from patent text by program, amines drawn as free bases though some values may be those of a salt):

Structure (SMILES)	melting point [°C]
COC(=O)[C@@H](NC(=O)c1ccc(C#Cc2ccc(C=O)cc2)cc1)[C@@H](C)O	143 to 144
Cn1c2c(ccc1=O)C(NCCc1ccc([N+](=O)[O-])cc1)CCC2 (centres undefined)	138 to 139
CCCSc1sc(C(N)=O)c2c1-c1nn(S(C)(=O)=O)cc1CC2	191 to 192
C[Si](C)(C)OC1(C#N)CCC(C(=O)NCc2cccc3ccccc23)c2ccccc21 (centres undefined)	55 to 56
COc1ccc(-c2cc(=S)n(Cc3cc(OC)c(OC)c(OC)c3)nc2-c2ccc(OC)cc2)cc1	142 to 146
COC(=O)c1nnn(C)c1C(=O)OC	63 to 64
Nc1cccc2c1N1CCN=C1S2	229
C#CCOC(=O)c1c(F)cccc1Oc1nc(OC)cc(OC)n1	49 to 50
COc1cc2c(cc1OC)C1=C(C#N)SCC(=O)N1CC2	186 to 187
COc1cn(-c2ccc(O)cc2F)nc(-c2ccnn2-c2ccccc2)c1=O	223 to 224
O=C1C(c2ccccc2)=C(c2ccc(Cl)cc2)C(=O)N1c1ccc(Cl)cc1	157
Cn1nc(C(F)(F)F)cc1Oc1cccc(C(=O)NCC(F)(F)F)n1	136
COC(=O)c1ccc(O)c(C23CC4CC(CC(C4)C2)C3)c1	183 to 184
COc1cc(OC)c2c(c1)S(=O)(=O)N(COC(=O)c1c(Cl)cccc1Cl)C2=O	200 to 201
COc1ccc(C(=O)OC2CCN(Cc3ccccc3)CC2)cc1	55 to 56
O=C(O)C1CCOc2c(Cl)cc(-c3ccccc3)cc21 (centres undefined)	187 to 188
CC(C)N(CCCC(=NNC(N)=S)c1ccccc1)C(=O)C1CCCCC1	112 to 114
O=[N+]([O-])c1cn2c(n1)O[C@@H](CN1CCN(Cc3ccc(-c4ccccc4)cc3)CC1)C2	207 to 208
CN(C)C(=O)NC1CCC(=O)c2ccccc21 (centres undefined)	157 to 162
CC(Oc1ncn(-c2cc(Cl)cc(Cl)c2)n1)C(=O)O (centres undefined)	230 to 231
CC1(C)Oc2c(N)ccc(Cl)c2C1=O	71 to 73
COC(=O)c1ccc2occ(-c3cc(F)ccc3F)c2c1	161 to 162
CCCCCCCCCCCCCCCCCCOc1ccc(C(=O)O)cc1OCCCCCCCCCCCCCCCCCC	94 to 117
CSCCOC(=O)CSc1cc(N=c2sc(=O)n3n2CCCC3)ccc1Cl	57 to 58
COc1cc(COc2nn(C)cc2C(N)=O)ccc1OCc1nc(-c2ccccc2)oc1C	168 to 169
Cn1cc(-c2ccncc2)cc(N)c1=O	175 to 176

Structure (SMILES)	melting point [°C]
ONCCc1ccccc1	118 to 121
Cc1c(F)c(F)cc2c1c(=O)c(C(=O)O)cn2C1CC1	294 to 298
Clc1ccc(Cc2nc(-c3ccccc3)nnc2NCCN2CCCCC2)cc1	192
CCOC(=O)c1cn(C2CC2)c2c(F)c(N3CCOC(CN(C)C)C3)c(F)cc2c1=O (centres undefined)	168 to 169
Clc1ccc(C(Cn2ccnc2)SCCC=Cc2ccccc2)c(Cl)c1 (centres undefined)	111 to 113
CC(C)[C@H](NC(=O)c1ccc2ccccc2n1)C(=O)NC(Cc1ccccc1)C(O)CNCC(O)C(Cc1ccccc1)NC(=O)OC(C)(C)C (some centres undefined)	192 to 194
CCCC(CCC)C(=O)OC1N=C(c2ccccc2F)c2cc(Cl)ccc2NC1=O (centres undefined)	147 to 149
COc1ccc(S(=O)(=O)Nc2ccc(Cl)nc2Nc2ccccc2)cc1	206 to 208
COc1cc2c(c(OC)c1OC)C(=O)c1c-2n(C)c(=O)c2ccccc12	194 to 195
CCOC(=O)c1cc2cc(NC(C)=O)ccc2[nH]1	202 to 203
CCCN1C(=O)CC(=O)N(CCC)C1=O	77 to 80
COC(=O)C1CC(C#N)(c2cccs2)CCC1=O (centres undefined)	76 to 78
CCOC(=O)c1cnc2c(c1O)CCCCCC2	219 to 222
CC(C)(O)Cn1c(CON2C(=O)c3ccccc3C2=O)nc2c(N)nc3ccccc3c21	270 to 272
Cc1ccc(N2C(=O)c3cc([N+](=O)[O-])cc([N+](=O)[O-])c3C2=O)cc1	182 to 183
NC1=NN(c2cccc(Cl)c2)C(c2ccccc2)C1 (centres undefined)	164 to 165
CC(C)Oc1ccc(-n2c(C(=O)NCC(=O)O)c(Cl)c3cc(Oc4ccc(C(F)(F)F)cc4)ccc32)cc1	94 to 96
Cc1cn(C)cc1C(=O)O	166 to 168
CC1CC2C3CCC4CC(O)CCC4(C)C3C(O)CC2(C)C1C1(C)OCCO1 (centres undefined)	109 to 111
CCCCCN(C(=O)Oc1ccc(C(=O)O)cc1)c1ccc2c(c1)C(C)(C)CCC2(C)C	100 to 102
Cc1c(C)c2c(c(C)c1NS(C)(=O)=O)C(c1ccc(C(C)C)cc1)CO2 (centres undefined)	132 to 133
O=C(NCCCSc1ccncc1)c1ccsc1	121 to 122
CC1CC(Nc2nnc(-c3cccc(Oc4cccc(C(F)(F)F)c4)c3)s2)CC(C)(C)C1 (centres undefined)	101 to 102
OC1(C2CCNCC2)CC(c2ccc(F)cc2)c2ccc(F)cc21 (centres undefined)	198
c1cn(CCCOc2ccc(-c3noc(C4CC4)n3)cc2)cn1	98 to 100
COCCOc1ccccc1-c1cc2[nH]c3ccc(O)cc3c2c2c1C(=O)NC2=O	275 to 279

Structure (SMILES)	melting point [°C]
O=C1C(=O)N(c2ccccc2)C(=O)N1c1ccccc1	203
O=C1NC(=O)C(Cc2ccc(OCCN3C(=O)c4ccccc4C3=O)cc2)S1 (centres undefined)	192 to 194
Cc1ccc(C(=O)NC(CCCCCl)C(=O)O)cc1 (centres undefined)	177 to 181
OCc1nc2ccc(Cl)nc2[nH]1	224 to 226
COc1ccc(/C=C/c2c(Cl)cccc2Cl)cc1OC1CCCC1	47 to 49
CCCCOc1c(CN2C(=O)c3ccccc3C2=O)n(CC(C)(C)C)c(=O)c2ccc(F)cc12	162 to 164
c1cn2ccnc2c(N2CCOCC2)n1	127
NC(=O)CCN1CC(O)CC1=O (centres undefined)	99 to 100
COc1cc(C)c(C)[nH]c1=O	215 to 219
CC(C)(C)C(=O)CC(C(=O)C(C)(C)C)n1cncn1 (centres undefined)	66 to 69
O=c1ccn(-c2cc3[nH]c(=O)c(=O)[nH]c3cc2[N+](=O)[O-])cc1	> 300
Nc1nc(N)nc(-c2nccc3ccccc23)n1	> 250
CC(C)C(=O)N[C@H]1CC[C@H](CCN2CCC(c3cccc4c3CCO4)CC2)CC1	212
COc1cc(OC)cc(-c2cc(=O)c3ccc(OCC(O)CNC(C)(C)C)cc3o2)c1 (centres undefined)	145 to 146
NS(=O)(=O)c1cc(C(=O)CCCCCl)cc2c1CCC2	117 to 119
Clc1ccccc1-c1cnc(-c2ccccc2Cl)nc1	112
Cc1ccc(Cl)c(C2CCc3c(C)cnnc3C2)c1 (centres undefined)	65 to 70
Cc1oc(-c2ccccc2)nc1COc1ccc2c(-c3ccccc3)c(CCl)oc2c1	129 to 130
N#Cc1nn(-c2c(Cl)cc(C(F)(F)F)cc2Cl)cc1C1C=CCCCC1 (centres undefined)	106 to 107
CCCCc1c(C)c(NC(=O)CC(C)(C)C)c(C)c2c1OCC2c1ccc(C(C)C)cc1 (centres undefined)	149 to 151
COc1cccc(NC(=O)NC2N=C(c3ccccc3)c3ccccc3N(C)C2=O)c1 (centres undefined)	216 to 219
c1ccc(Nc2nc(-c3ccco3)nc3ccccc23)cc1	183 to 184
OCCNc1cc(N2CCCC2)nc(N2CCCC2)n1	150 to 152
COC(=O)c1nc(-c2ccco2)cc(N)c1Cl	145 to 150
CCc1nc2ccccc2c(=O)o1	83.9
O=C(NC(CO)CO)c1cccc(-c2ccc3c(c2)C(c2cc(Cl)ccc2Cl)CC3)c1 (centres undefined)	166

Structure (SMILES)	melting point [°C]
C=CCN(C)c1ccc(C(C#N)=C(C#N)C#N)cc1	155
O=C1NC(=O)c2c1c(O)nc1cc(Cl)c(Cl)cc21	> 350
O=C1CC(c2cccc3oc4c(c23)CCCC4)CC(=O)O1	139 to 140
CC(C)(Oc1ccc(CCC(=O)c2ccc(-c3ccc(C(F)(F)F)cc3)o2)c(Cl)c1Cl)C(=O)O	85
FC(F)(F)c1cc(-c2ccc(Cl)cc2)nc2c(-c3ccncc3)ncn12	290
COCc1cc(-c2ccccc2)c(=O)n2c1-c1sccc1CC2	120
Cc1nc2cccc3n(CCCNS(C)(=O)=O)c(=O)c1n23	184 to 185
CC(C)(C)c1cc(-c2ccccc2NC(=O)CCCC(=O)O)cc(C(C)(C)C)c1O	132 to 134
COC(=O)Cc1c(Cl)ncnc1N(C)C	30 to 32
COc1ccc(-c2c3c(cc4ccc(OC)cc24)C(=O)NC3=O)cc1	290 to 292
COc1ccc(CC(=O)NCc2ccccc2-c2ccccc2C(=O)NCc2ccc(F)cc2F)cc1	138
Cc1ccc(-c2ccc(S(=O)(=O)Nc3onc(C)c3Br)cc2)cc1	153 to 156
O=C(Cl)c1cn(CCCCl)c(=O)c2ccccc12	101
COC(=O)C1(Cl)SC=CC1=O (centres undefined)	70 to 71
CC(c1ccc(-c2ccccc2F)cc1)S(=O)CC(=O)N(C)C (centres undefined)	131 to 133
CC(C)Oc1ccccc1Oc1ccc(NC(=O)N2CCc3ccccc3CC2)cn1	149 to 152
COc1ccc2cc([C@H](C)C(=O)Oc3ccc(OCCO[N+](=O)[O-])cc3)ccc2c1	141 to 142
CN1CCN(c2cccc(C(=O)N3CC=C(c4ccccc4F)CC3)n2)CC1	177
CCCc1nc2c(N)nc3cccnc3c2n1CCCCCC(N)=O	216 to 218
Cc1cc2cn[nH]c(=O)c2n1CC(C)C	188 to 191
CCCCCCC(=Cc1ccccc1)C(O)Cc1nc(C)c(C)nc1C (centres undefined)	61 to 62
O=C(O)c1c(Br)c(Br)c([N+](=O)[O-])c2c1OCCO2	238
Cc1ccc(-c2cc(OCC(=O)N3CCOCC3)c3c(C(F)(F)F)cccc3n2)cc1	172
O=[N+]([O-])c1ccc2sc(=Nc3ccccc3)sc2c1	136 to 138
Nc1c(-c2cc(Cl)ccc2O)nnn1-c1ccc(C(F)(F)F)cc1Cl	74.5 to 77.5
[N-]=[N+]=Nc1cc(Cl)nc(-c2ccco2)n1	117 to 119
